Laboratory results reported in patent US20100003724A1, “CHEMICALLY MODIFIED NUCLEOSIDE 5'-TRIPHOSPHATES FOR THERMALLY INITIATED AMPLIFICATION OF NUCLEIC ACID” (priority 2008, published 2010).
Read-outs that look alike come from different tables or passages of the source.

Tests used:
[1] = for Concentration of unmodified dTTP: 250 μM solution of 3′-substituted dTTP, 95° C., PCR buffer (pH 8.4 at 25° C.); for cleavage of the 3′-ester group: within 60 minutes of incubation
Method: Conversion of the 3′-substituted dTTP to the corresponding unmodified dTTP was investigated in PCR buffer (pH 8.4 at 25° C., Table 1) at 20° C. and 95° C. The reactions were monitored by analysis of the incubated mixtures by reverse-phase and anion-exchange HPLC.

[2] = molecular target: Klenow (exo-) DNA polymerase (Escherichia coli, UniProt P00582, D355A/E357A); conditions: for substrate for Klenow (exo-) DNA polymerase (incorporation and extension): after a 40 minute preheating step at 95° C.; for substrate for Klenow (exo-) DNA polymerase (incorporation into the primer): room temperature, unheated 3′-substituted dTTP
Method: The ability of Klenow (exo-) DNA polymerase to perform room temperature primer extensions of a pre-annealed primer/template duplex was evaluated in 50 mM NaCl, 10 mM Tris-HCl (pH 7.9), 10 mM MgCl, 1 mM DTT, 0.5 units of enzyme, 0.2 mM dATP and in the presence of one of the following 3′-substituted dTTP derivatives: 3′-THP-dTTP, 3′-MTHP-dTTP or 3′-THF-dTTP (FIG. 4 (top)).

[3] = molecular target: Taq DNA polymerase (Thermus aquaticus, UniProt P19821); assay: Primer extension with Taq DNA polymerase at room temperature; conditions: 25 units of enzyme
Excerpt: The extension experiments were repeated with Taq DNA polymerase at room temperature utilizing 25 units of enzyme and either 3′-THF-dTTP or 3′-Ac-dTTP.

[4] = system: Lambda DNA and HIV-1 DNA systems; conditions: one 3′-substituted dTTP derivative in place of natural dTTP; compared to all four natural dNTPs
Method: For the Lambda DNA and HIV-1 DNA systems (Table 2), PCR conditions were used where non-specific amplification products, including primer dimers, readily formed in the presence of template. These conditions employed 1 μM concentration of both the forward and reverse oligonucleotide primers, 10 HIV-1 or 10,000 Lambda DNA copies of template, 0.2 mM each of dNTP or 3′-substituted dNTP, and 2.0 mM MgCl2. Each mixture contained 50 ng of Human Genomic DNA. The thermal cycling parameters were as follows: 95° C. for 2 min; 40 cycles of [95° C. for 40 sec; 56° C. for 30 sec; 72° C. for 2 min]; 72° C. for 7 min.

[5] = system: HIV-1 system (365 bp HIV-1 fragment); assay: Hot Start PCR with 3′-THF-dNTPs substituted for natural dNTPs; assay type: biochemical; conditions: 3′-THF dNTP substituted for its natural dNTP
Method: Each mixture contained 50 ng of Human Genomic DNA.
All permutations of substitution of one, two, three or four 3′-THF-dNTPs (from the group of 3′-THF-dATP, […], 3′-THF-dCTP and 3′-THF-dTTP) were examined for their natural counterpart and the resultant effect on reducing primer dimer formation. […] A combined substitution of two or more 3′-THF derivatives of dNTPs for natural dNTPs further improved PCR performance. Thus, combination of 3′-THF-dTTP and 3′-THF-dATP, as a replacement for dTTP and dATP, nearly completely eliminated non-specific amplification products in the HIV-1 system (approximately 10-fold improvement, FIG. 7). Overall, there was a strong correlation between using more than one type of 3′-substituted dNTP in a PCR mixture with an efficiency and specificity of amplicon production.

Klenow (exo-) DNA polymerase, sequence (P00582 324-928 D355A/E357A): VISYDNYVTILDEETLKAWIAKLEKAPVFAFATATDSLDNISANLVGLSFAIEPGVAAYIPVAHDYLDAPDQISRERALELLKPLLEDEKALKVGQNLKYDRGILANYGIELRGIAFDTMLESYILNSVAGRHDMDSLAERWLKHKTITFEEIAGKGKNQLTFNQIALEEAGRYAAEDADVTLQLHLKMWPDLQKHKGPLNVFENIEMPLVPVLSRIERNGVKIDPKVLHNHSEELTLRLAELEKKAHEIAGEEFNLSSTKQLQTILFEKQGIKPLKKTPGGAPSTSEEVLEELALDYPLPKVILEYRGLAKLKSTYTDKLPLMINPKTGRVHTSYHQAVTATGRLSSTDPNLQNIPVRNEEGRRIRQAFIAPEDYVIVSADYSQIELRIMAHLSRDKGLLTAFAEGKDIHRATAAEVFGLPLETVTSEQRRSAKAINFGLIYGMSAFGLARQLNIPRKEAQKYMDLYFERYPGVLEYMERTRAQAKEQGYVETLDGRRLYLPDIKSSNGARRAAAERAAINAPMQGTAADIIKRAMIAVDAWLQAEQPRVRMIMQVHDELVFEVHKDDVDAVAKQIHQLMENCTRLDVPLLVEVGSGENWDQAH
Taq DNA polymerase, sequence (P19821 whole entry): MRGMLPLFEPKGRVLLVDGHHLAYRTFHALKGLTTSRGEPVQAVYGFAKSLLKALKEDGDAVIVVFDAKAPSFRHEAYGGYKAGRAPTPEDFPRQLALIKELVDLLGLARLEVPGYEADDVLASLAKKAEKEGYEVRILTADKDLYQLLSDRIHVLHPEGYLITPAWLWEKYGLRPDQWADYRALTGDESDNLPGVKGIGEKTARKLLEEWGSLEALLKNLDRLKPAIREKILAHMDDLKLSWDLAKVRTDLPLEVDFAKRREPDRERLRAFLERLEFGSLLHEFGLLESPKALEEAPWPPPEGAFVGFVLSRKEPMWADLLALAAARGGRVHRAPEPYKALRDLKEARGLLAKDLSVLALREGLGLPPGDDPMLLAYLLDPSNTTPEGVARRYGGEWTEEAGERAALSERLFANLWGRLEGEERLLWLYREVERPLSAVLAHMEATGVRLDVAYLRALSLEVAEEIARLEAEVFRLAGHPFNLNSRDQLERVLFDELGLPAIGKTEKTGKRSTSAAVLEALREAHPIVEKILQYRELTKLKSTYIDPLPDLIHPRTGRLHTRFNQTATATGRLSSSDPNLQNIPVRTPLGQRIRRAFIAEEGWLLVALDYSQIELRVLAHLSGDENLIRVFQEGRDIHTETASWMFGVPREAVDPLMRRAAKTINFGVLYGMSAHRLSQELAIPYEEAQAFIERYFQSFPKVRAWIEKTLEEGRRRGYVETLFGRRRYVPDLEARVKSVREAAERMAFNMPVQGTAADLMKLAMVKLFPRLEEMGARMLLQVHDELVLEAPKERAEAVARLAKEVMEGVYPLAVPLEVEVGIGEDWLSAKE

In the case of Cc1cn([C@H]2C[C@H](OC3CCCO3)[C@@H](COP(=O)(O)OP(=O)(O)OP(=O)(O)O)O2)c(=O)[nH]c1=O (stereo partly drawn) [3′-THF-dTTP], the “Concentration of unmodified dTTP” value ([1]; 2 min) is reported as 7 µM, the “Concentration of unmodified dTTP” value ([1]; 10 min) is reported as 39 µM and the “Concentration of unmodified dTTP” value ([1]; 20 min) is reported as 57 µM. The “substrate for Klenow (exo-) DNA polymerase (incorporation and extension)” value (from here on “substrate … (incorporation and extension)”) [2] was “became substrates for enzyme”, the “substrate for Klenow (exo-) DNA polymerase (incorporation into the primer)” value (“substrate … (incorporation into the primer)” below) [2] was “not substrates” and the “substrate for Taq DNA polymerase” value [3] was “not substrates”.
With CC(=O)OC1CC(n2cc(C)c(=O)[nH]c2=O)OC1COP(=O)(O)OP(=O)(O)OP(=O)(O)O (stereo not drawn) [3′-Ac-dTTP, 3′-O-acetyl-dTTP] the “Concentration of unmodified dTTP” value ([1]; 2 min) was 0 µM, the “Concentration of unmodified dTTP” value ([1]; 10 min) was 5 µM and the “Concentration of unmodified dTTP” value ([1]; 20 min) was 18 µM. The “cleavage of the 3′-acetyl group” value ([1]; PCR buffer, room temperature, after 24 hours of incubation) was 6%, the “substrate … (incorporation into the primer)” value [2] was “not a substrate” and the “overall PCR performance” value [4] was “not as good as with natural dTTP”. The “substrate for Taq DNA polymerase” value [3] was “not substrates”.
For COCC(=O)O[C@H]1C[C@H](n2cc(C)c(=O)[nH]c2=O)O[C@@H]1COP(=O)(O)OP(=O)(O)OP(=O)(O)O [3′-O[CH3OAc]], the “Concentration of unmodified dTTP” value ([1]; 2 min) was 35 µM, the “Concentration of unmodified dTTP” value ([1]; 10 min) was 140 µM and the “Concentration of unmodified dTTP” value ([1]; 20 min) was 195 µM. The “cleavage of the 3′-ester group” value ([1]; PCR buffer, room temperature) was 4%.
For Cc1cn([C@H]2C[C@H](OC(=O)COc3ccccc3)[C@@H](COP(=O)(O)OP(=O)(O)OP(=O)(O)O)O2)c(=O)[nH]c1=O [3′-O[PhOAc]], the “Concentration of unmodified dTTP” value ([1]; 2 min) was 50 µM, the “Concentration of unmodified dTTP” value ([1]; 10 min) was 170 µM and the “Concentration of unmodified dTTP” value ([1]; 20 min) was 209 µM. For the same molecule, the “cleavage of the 3′-ester group” value ([1]; PCR buffer, room temperature) was 10%.
With Nc1ncnc2c1ncn2C1CC(OC2CCCO2)C(COP(=O)(O)OP(=O)(O)OP(=O)(O)O)O1 (stereo not drawn) [3′-THF-dATP] the “PCR performance (non-specific amplification products, specific amplicon formation)” value [5] was “strong reduction of both non-specific amplification products and an increase of specific amplicon formation”.
For Cc1cn([C@H]2C[C@H](OC3CCCCO3)[C@@H](COP(=O)(O)OP(=O)(O)OP(=O)(O)O)O2)c(=O)[nH]c1=O (stereo partly drawn) [3′-THP-dTTP], the “Concentration of unmodified dTTP” value ([1]; 2 min) was “≦1 μM”, the “Concentration of unmodified dTTP” value ([1]; 10 min) was 10 µM and the “Concentration of unmodified dTTP” value ([1]; 20 min) was 16 µM. The “substrate … (incorporation and extension)” value [2] was “became substrates for enzyme”, the “substrate … (incorporation into the primer)” value [2] was “not substrates” and the “overall PCR performance” value [4] was “not as good as with natural dTTP”.
In the case of COC1(O[C@H]2C[C@H](n3cc(C)c(=O)[nH]c3=O)O[C@@H]2COP(=O)(O)OP(=O)(O)OP(=O)(O)O)CCOCC1 [3′-MTHP-dTTP], the “Concentration of unmodified dTTP” value ([1]; 2 min) is reported as 2 µM, the “Concentration of unmodified dTTP” value ([1]; 10 min) is reported as 21 µM and the “Concentration of unmodified dTTP” value ([1]; 20 min) is reported as 47 µM. For the same molecule, the “substrate … (incorporation and extension)” value [2] was “became substrates for enzyme” and the “substrate … (incorporation into the primer)” value [2] was “not substrates”.
